Laboratory results as given in paper PMC12396409, “Screening and hit evaluation of a microbial metabolite library against the pathogenic Plasmodium falciparum and Toxoplasma gondii parasites” (International Journal for Parasitology: Drugs and Drug …, 2025).
Where two headings read alike, the source gives them in different places.

How the values were obtained:
[1] = system: P. falciparum 3D7 parasites; assay: P. falciparum growth inhibition assay, 2-cycle (120 h treatment), delayed-death screen and dose-response; assay type: cell-based, Plasmodium falciparum; conditions: for activity at 2 µg/mL: Plasmodium falciparum
[2] = system: P. falciparum 3D7 parasites; assay: P. falciparum growth inhibition assay, 1-cycle (72 h treatment), SYBR DNA staining (library screen at 2 μg/mL and dose-response); assay type: cell-based, Plasmodium falciparum; conditions: for activity at 2 µg/mL: Plasmodium falciparum
[3] = system: T. gondii RH strain (RH-Tub-eYFP) tachyzoites; assay: microbe, parasite or virus in culture; assay type: cell-based, Toxoplasma gondii; conditions: 72 h; for percent parasite growth at 2 µg/mL: Toxoplasma gondii
[4] = P. falciparum 3D7, 120 h, parasite screen at 2 μg/mL, % growth, replicate 1
[5] = P. falciparum 3D7, 120 h, parasite screen at 2 μg/mL, % growth, replicate 2
[6] = P. falciparum 3D7, 72 h, parasite screen at 2 μg/mL, % growth, replicate 1
[7] = P. falciparum 3D7, 72 h, parasite screen at 2 μg/mL, % growth, replicate 2
[8] = T. gondii, parasite screen at 2 μg/mL, % growth, replicate 1
[9] = T. gondii, parasite screen at 2 μg/mL, % growth, replicate 2
[10] = 3D7, 120 h, P. falciparum, 120 h, screen at 2 μg/mL, replicate 1, read-out: Pf_120h_%Growth_Rep1
[11] = 3D7, 120 h, P. falciparum, 120 h, screen at 2 μg/mL, replicate 2, read-out: Pf_120h_%Growth_Rep2
[12] = 3D7, 72 h, P. falciparum, 72 h, screen at 2 μg/mL, replicate 1, read-out: Pf_72h_%Growth_Rep1
[13] = 3D7, 72 h, P. falciparum, 72 h, screen at 2 μg/mL, replicate 2, read-out: Pf_72h_%Growth_Rep2
[14] = T. gondii, screen at 2 μg/mL, replicate 1, read-out: Tg_72h_%Growth_Rep1
[15] = T. gondii, screen at 2 μg/mL, replicate 2, read-out: Tg_72h_%Growth_Rep2
[16] = library screen at 2 μg/mL, 120 h, % growth, replicate 1
[17] = library screen at 2 μg/mL, 120 h, % growth, replicate 2
[18] = library screen at 2 μg/mL, 72 h, % growth, replicate 1
[19] = library screen at 2 μg/mL, 72 h, % growth, replicate 2
[20] = library screen at 2 μg/mL, % growth, replicate 1
[21] = library screen at 2 μg/mL, % growth, replicate 2
[22] = P. falciparum 3D7, 120 h, library screen at 2 μg/mL, % growth, replicate 1
[23] = P. falciparum 3D7, 120 h, library screen at 2 μg/mL, % growth, replicate 2
[24] = P. falciparum 3D7, 72 h, library screen at 2 μg/mL, % growth, replicate 1
[25] = P. falciparum 3D7, 72 h, library screen at 2 μg/mL, % growth, replicate 2
[26] = T. gondii RH, library screen at 2 μg/mL, % growth, replicate 1
[27] = T. gondii RH, library screen at 2 μg/mL, % growth, replicate 2
[28] = P. falciparum, 120 h, screen at 2 μg/mL, replicate 1
[29] = P. falciparum, 120 h, screen at 2 μg/mL, replicate 2
[30] = P. falciparum, 72 h, screen at 2 μg/mL, replicate 1
[31] = P. falciparum, 72 h, screen at 2 μg/mL, replicate 2
[32] = T. gondii, screen at 2 μg/mL, replicate 1
[33] = T. gondii, screen at 2 μg/mL, replicate 2
[34] = 3D7, library screen at 2 μg/mL, 120 h, % growth, replicate 1, read-out: Pf_120h_%Growth_Rep1
[35] = 3D7, library screen at 2 μg/mL, 120 h, % growth, replicate 2, read-out: Pf_120h_%Growth_Rep2
[36] = 3D7, library screen at 2 μg/mL, 72 h, % growth, replicate 1, read-out: Pf_72h_%Growth_Rep1
[37] = 3D7, library screen at 2 μg/mL, 72 h, % growth, replicate 2, read-out: Pf_72h_%Growth_Rep2
[38] = library screen at 2 μg/mL, % growth, replicate 1, read-out: Tg_72h_%Growth_Rep1
[39] = library screen at 2 μg/mL, % growth, replicate 2, read-out: Tg_72h_%Growth_Rep2

COc1oc(C2C/C(=C/C(C)=C/C(C)=C/C(C)=C/c3ccc([N+](=O)[O-])cc3)CO2)c(C)c(=O)c1C (stereo not drawn) [BIA-N1058]
Pf_120h_%Growth_Rep1 [1, 4]: 17.59% | Pf_120h_%Growth_Rep2 [1, 5]: 18.76% | Pf_72h_%Growth_Rep1 [2, 6]: 9.38% | Pf_72h_%Growth_Rep2 [2, 7]: 10.75% | Tg_72h_%Growth_Rep1 [3, 8]: 44.53% | Tg_72h_%Growth_Rep2 [3, 9]: 72.88%

C[C@@H]1C[C@H]2CC[C@H](O2)[C@H](C)C(=O)O[C@@H](C)C[C@@H]2CC[C@@H](O2)[C@@H](C)C(=O)O[C@H](C)C[C@H]2CC[C@@H](O2)[C@H](C)C(=O)O[C@@H](C)C[C@@H]2CC[C@@H](O2)[C@@H](C)C(=O)O1 [BIA-N1270]
Pf_120h_%Growth_Rep1 [1, 4]: 46.69% | Pf_120h_%Growth_Rep2 [1, 5]: 11.45% | Pf_72h_%Growth_Rep1 [2, 6]: 6.60% | Pf_72h_%Growth_Rep2 [2, 7]: 4.15% | Tg_72h_%Growth_Rep1 [3, 8]: 4.95% | Tg_72h_%Growth_Rep2 [3, 9]: 0.97%

C[C@H]1CCCC(=O)CCCCCc2cc(O)cc(O)c2C(=O)O1 [Zearalanone]
activity at 2 µg/mL [1, 10]: 102% | activity at 2 µg/mL [1, 11]: 77.7% | activity at 2 µg/mL [2, 12]: 31.9% | activity at 2 µg/mL [2, 13]: 78.2% | percent parasite growth at 2 µg/mL [3, 14]: 97% | percent parasite growth at 2 µg/mL [3, 15]: 107%

O=C(O)/C=C/c1c[nH]cn1 [Urocanic acid]
activity at 2 µg/mL [1, 10]: 81.3% | activity at 2 µg/mL [1, 11]: 51.9% | activity at 2 µg/mL [2, 12]: 79.2% | activity at 2 µg/mL [2, 13]: 89.3% | percent parasite growth at 2 µg/mL [3, 14]: 81% | percent parasite growth at 2 µg/mL [3, 15]: 70.9%

Cc1c2c(c(O)c3c(O)ccc(Cl)c13)C(=O)[C@]1(O)C(O)=C(C(N)=O)C(=O)[C@@H](N(C)C)[C@@H]1C2.Cl [Anhydrochlortetracycline hydrochloride]
Pf_120h_%Growth_Rep1 [1, 16]: 62.00% | Pf_120h_%Growth_Rep2 [1, 17]: 93.26% | Pf_72h_%Growth_Rep1 [2, 18]: 86.52% | Pf_72h_%Growth_Rep2 [2, 19]: 88.12% | Tg_72h_%Growth_Rep1 [3, 20]: 107.44% | Tg_72h_%Growth_Rep2 [3, 21]: 94.77%

COC1CC(OC2C(C)OC(OC3C(C)=CCC4CC(CC5(CCC(C)C(C(C)C)O5)O4)OC(=O)C4C=C(C)C(O)C5OCC(=CC=CC3C)C45O)CC2OC)OC(C)C1O (stereo not drawn) [BIA-I1117]
Pf_120h_%Growth_Rep1 [1, 22]: 88.89% | Pf_120h_%Growth_Rep2 [1, 23]: 109.63% | Pf_72h_%Growth_Rep1 [2, 24]: 83.64% | Pf_72h_%Growth_Rep2 [2, 25]: 117.79% | Tg_72h_%Growth_Rep1 [3, 26]: 121.89% | Tg_72h_%Growth_Rep2 [3, 27]: 92.41%

OCC1=C[C@@H](N[C@H]2C[C@H](CO)[C@@H](O[C@H]3O[C@@H](CO)[C@H](O)[C@@H](O)[C@@H]3O)[C@H](O)[C@H]2O)[C@H](O)[C@@H](O)[C@@H]1O [Validamycin A]
Pf_120h_%Growth_Rep1 [1, 28]: 167.49% | Pf_120h_%Growth_Rep2 [1, 29]: 74.14% | Pf_72h_%Growth_Rep1 [2, 30]: 75.67% | Pf_72h_%Growth_Rep2 [2, 31]: 70.52% | Tg_72h_%Growth_Rep1 [3, 32]: 87.00% | Tg_72h_%Growth_Rep2 [3, 33]: 98.14%

C=C1CC[C@H]2C(C)(C)CCC[C@]2(C)[C@H]1C[C@@]12C[C@H]3C(=O)N4CCC[C@H]4C(=O)N3[C@@H]1Nc1ccccc12 [Drimentine C]
activity at 2 µg/mL [1, 34]: 78.4% | activity at 2 µg/mL [1, 35]: 103% | activity at 2 µg/mL [2, 36]: 85.2% | activity at 2 µg/mL [2, 37]: 87.9% | percent parasite growth at 2 µg/mL [3, 38]: 91.6% | percent parasite growth at 2 µg/mL [3, 39]: 73.3%

O=c1cc2ccocc-2o1 [BIA-K1792]
Pf_120h_%Growth_Rep1 [1, 22]: 89.46% | Pf_120h_%Growth_Rep2 [1, 23]: 104.67% | Pf_72h_%Growth_Rep1 [2, 24]: 80.31% | Pf_72h_%Growth_Rep2 [2, 25]: 115.37% | Tg_72h_%Growth_Rep1 [3, 26]: 114.69% | Tg_72h_%Growth_Rep2 [3, 27]: 93.25%

O=C(N[C@H](COC(=O)[C@H](Cc1ccccc1)NC(=O)c1ccccc1)Cc1ccccc1)c1ccccc1 [Asperphenamate]
activity at 2 µg/mL [1, 34]: 69.7% | activity at 2 µg/mL [1, 35]: 85.4% | activity at 2 µg/mL [2, 36]: 84.3% | activity at 2 µg/mL [2, 37]: 83.3% | percent parasite growth at 2 µg/mL [3, 38]: 150% | percent parasite growth at 2 µg/mL [3, 39]: 107%

CCN(CC)CCS(=O)(=O)[C@@H]1CCN2C(=O)c3coc(n3)CC(=O)C[C@H](O)/C=C(C)/C=C/CNC(=O)/C=C/[C@@H](C)[C@@H](C(C)C)OC(=O)[C@@H]12.CS(=O)(=O)O [Dalfopristin mesylate, reference compound]
2) Growth (%) at 120 h ([1]; P. falciparum, 2 μg/mL, 120 h): 5.60% | Pf_120h_%Growth_Rep1 [1, 28]: 1.37% | Pf_120h_%Growth_Rep2 [1, 29]: 9.82% | 3) Fold change (72 h/120 h) ([1]; P. falciparum, growth at 72 h / growth at 120 h, 2 μg/mL): 8.1 | 1) Growth (%) at 72 h ([2]; P. falciparum, 2 μg/mL, 72 h): 45.58% | Pf_72h_%Growth_Rep1 [2, 30]: 55.22% | Pf_72h_%Growth_Rep2 [2, 31]: 35.94% | Tg_72h_%Growth_Rep1 [3, 32]: 40.17% | Tg_72h_%Growth_Rep2 [3, 33]: 68.18%

CO[C@H]1C[C@H](O[C@H]2[C@H](C)O[C@@H](O[C@@H]3/C(C)=C/C[C@@H]4C[C@@H](C[C@]5(C=C[C@H](C)[C@@H](C(C)C)O5)O4)OC(=O)[C@@H]4C=C(C)[C@@H](O)[C@H]5OC/C(=C\C=C\[C@@H]3C)[C@]54O)C[C@@H]2OC)O[C@@H](C)[C@@H]1O [Avermectin B1b]
Pf_120h_%Growth_Rep1 [1, 16]: 7.97% | Pf_120h_%Growth_Rep2 [1, 17]: -7.80% | Pf_72h_%Growth_Rep1 [2, 18]: 8.18% | Pf_72h_%Growth_Rep2 [2, 19]: 3.73% | Tg_72h_%Growth_Rep1 [3, 20]: 74.43% | Tg_72h_%Growth_Rep2 [3, 21]: 75.78%

Oc1cc(O)cc(O)c1 [BIA-P1379]
Pf_120h_%Growth_Rep1 [1, 4]: 15.44% | Pf_120h_%Growth_Rep2 [1, 5]: 11.00% | Pf_72h_%Growth_Rep1 [2, 6]: 72.55% | Pf_72h_%Growth_Rep2 [2, 7]: 29.88% | Tg_72h_%Growth_Rep1 [3, 8]: 123.57% | Tg_72h_%Growth_Rep2 [3, 9]: 91.75%

COc1ccc2[nH]c3c(C)c4ccncc4c(C)c3c2c1 [BIA-M1952]
Pf_120h_%Growth_Rep2 [1]: -1.49% | Pf_120h_%Growth_Rep1 [1, 4]: 10.32% | Pf_72h_%Growth_Rep1 [2, 6]: 9.89% | Pf_72h_%Growth_Rep2 [2, 7]: -0.96% | Tg_72h_%Growth_Rep1 [3, 8]: 3.28% | Tg_72h_%Growth_Rep2 [3, 9]: 1.49%

COC1=C(OC)C(=O)C(C)=CC1=O [Fumigatin methylether]
Pf_120h_%Growth_Rep1 [1, 16]: 25.98% | Pf_120h_%Growth_Rep2 [1, 17]: 27.21% | Pf_72h_%Growth_Rep1 [2, 18]: 10.44% | Pf_72h_%Growth_Rep2 [2, 19]: 11.19% | Tg_72h_%Growth_Rep1 [3, 20]: 59.41% | Tg_72h_%Growth_Rep2 [3, 21]: 97.15%

CC1(O)Cc2oc3cc(O)c(O)c(C(=O)O)c3c(=O)c2CO1 (stereo not drawn) [Fulvic acid]
Pf_120h_%Growth_Rep1 [1, 16]: 105.15% | Pf_120h_%Growth_Rep2 [1, 17]: 98.61% | Pf_72h_%Growth_Rep1 [2, 18]: 84.86% | Pf_72h_%Growth_Rep2 [2, 19]: 84.76% | Tg_72h_%Growth_Rep1 [3, 20]: 149.83% | Tg_72h_%Growth_Rep2 [3, 21]: 113.67%
